The assay deals with Cathepsin B (Bos taurus, UniProt P07688). Briefly: Inhibition of bovine cathepsin B after 1 hr by fluorescence assay.

In general, IC50 refers to the concentration that inhibits the measured activity by half. Higher therefore signals lower potency. Molecule `C[C@H]([C@@H]1C[C@H]2C[C@](C)(OC2(C)C)[C@@H](CC[C@@H](C)[C@H]2CC[C@H]3C4=C(CC[C@]23C)[C@@]2(C)C[C@H](OS(=O)(=O)O)[C@@H](OS(=O)(=O)O)[C@H](C)C2=CC4)O1)[C@H]1CC[C@H]2C3=C(CC[C@]12C)[C@]12CC[C@](O)(OC1)[C@@H](C)[C@@H]2[C@@H](OS(=O)(=O)O)C3` [SHISHICRELLASTATIN A] had an IC50 of 6.79 µM.

For `C[C@H]([C@@H]1C[C@H]2C[C@](C)(OC2(C)C)[C@@H](CC[C@@H](C)[C@H]2CC=C3C4=C(CC[C@@]32C)[C@@]2(C)C[C@H](OS(=O)(=O)O)[C@@H](OS(=O)(=O)O)[C@H](C)C2=CC4)O1)[C@H]1CC[C@H]2C3=C(CC[C@]12C)[C@]12CC[C@](O)(OC1)[C@@H](C)[C@@H]2[C@@H](OS(=O)(=O)O)C3` [SHISHICRELLASTATIN B], the IC50 is 6.81 µM.

Values taken from ChEMBL document CHEMBL1914361, “Shishicrellastatins, inhibitors of cathepsin B, from the marine sponge Crella (Yvesia) spinulata” (Bioorg Med Chem, 2011).
